Patent US20140171417A1, “TRICYCLIC COMPOUNDS” (NOVARTIS AG, priority 2012, published 2014)

Target: T1, CFTR (Homo sapiens, UniProt P13569)
T1 construct: expressed in transfected cells
Experiment: IonWorks Quattro assay (CFTR Inhibitor Assay), whole-cell planar patch clamp
Type: cell-based
Conditions: inward current (−100 mV); CHO cells stably expressing WT-CFTR; CFTR activated by 10 μM forskolin; test compound incubated 10 min
Text: CFTR activity can be quantified by electrophysiology methods, using the whole-cell configuration of the patch clamp technique (Hamill O, Marty A, Neher E, Sakmann B and Sigworth F. ‘Improved patch-clamp techniques for high resolution current recording from cells and cell-free membrane patches.’ Pflugers Archive 1981 391: 85-100). This assay directly measures the currents associated with chloride flow through CFTR channels whilst either maintaining or adjusting the transmembrane voltage. This assay can use either single glass micropipettes or parallel planar arrays to measure CFTR activity from native or recombinant cell systems. Currents measured using parallel planar arrays can be quantified using an appropriately equipped instrument such as the IonWorks Quattro (Molecular Devices Corporation, Sunnyvale, Calif.). The Quattro system can measure CFTR currents from either a single cell per recording well (HT configuration) or alternatively from a population of 64 cells per well (Population Patch Clamp PPC) (Finkel A, Wittel A, Yang N, Handran S, Hughes J, Costantin J. ‘Population patch clamp improves data consistency and success rates in the measurement of ionic currents.’ J Biomol Screen. 2006 August; 11 (5):488-96).
Chinese hamster ovary (CHO) cells stably expressing WT-CFTR channels were used for the IonWorks Quattro experiments. Cells were maintained at 37° C. in 5% v/v CO2 at 100% humidity in MEM alpha medium supplemented with 10% (v/v) FCS, 100 U/mL Penicillin/Streptomycin, and 100 μg/L methotrexate. For experiments, cells were grown in 225 cm^2 tissue culture flasks until almost confluent. Cells were removed from the flask using trypsin-EDTA and resuspended in extracellular recording solution for immediate experimentation.
Cells, at a density of 1.5-2 million per mL, were placed on the Quattro system, added to the planar patch plate and seals allowed to establish for 5-10 mins. After assessing seal resistances (typically >50 MΩ), whole-cell access was obtained by perforation with 100 μg/mL amphotericin B. Baseline currents were measured by a pre-compound scan obtained by application of a voltage ramp from −100 to +100 mV. CFTR was activated by the addition of 10 μM forskolin to each of the 384 wells of the patch plate. After 5 min incubation the post-compound 1 currents were measured, again by application of a voltage ramp from −100 to +100 mV. Test compounds, diluted from 10 mM stocks in DMSO in extracellular solution were then added to the patch plate and were incubated for a further 10 min. The post-compound 2 currents were measured by the application of the same voltage ramp from −100 to +100 mV. The inhibition of CFTR was determined from the difference in current between the forskolin addition (post-compound 1) and the test compound (post-compound 2). This was determined at both −100 mV and +100 mV which represents the inward and outward current respectively.
Extracellular solution (ECS): 145 mM NaCl, 4 mM CsCl, 5 mM D-glucose, 10 mM TES, 1 mM CaCl2, 1 mM MgCl2, pH 7.4 NaOH
Intracellular solution (ICS): 113 mM L-Aspartic acid, 113 mM CsOH, 27 mM CsCl, 1 mM NaCl, 1 mM MgCl2, 1 mM EGTA, 10 mM TES. pH 7.2 with CsOH. Filter sterilized before use.

T1 sequence (P13569 whole entry): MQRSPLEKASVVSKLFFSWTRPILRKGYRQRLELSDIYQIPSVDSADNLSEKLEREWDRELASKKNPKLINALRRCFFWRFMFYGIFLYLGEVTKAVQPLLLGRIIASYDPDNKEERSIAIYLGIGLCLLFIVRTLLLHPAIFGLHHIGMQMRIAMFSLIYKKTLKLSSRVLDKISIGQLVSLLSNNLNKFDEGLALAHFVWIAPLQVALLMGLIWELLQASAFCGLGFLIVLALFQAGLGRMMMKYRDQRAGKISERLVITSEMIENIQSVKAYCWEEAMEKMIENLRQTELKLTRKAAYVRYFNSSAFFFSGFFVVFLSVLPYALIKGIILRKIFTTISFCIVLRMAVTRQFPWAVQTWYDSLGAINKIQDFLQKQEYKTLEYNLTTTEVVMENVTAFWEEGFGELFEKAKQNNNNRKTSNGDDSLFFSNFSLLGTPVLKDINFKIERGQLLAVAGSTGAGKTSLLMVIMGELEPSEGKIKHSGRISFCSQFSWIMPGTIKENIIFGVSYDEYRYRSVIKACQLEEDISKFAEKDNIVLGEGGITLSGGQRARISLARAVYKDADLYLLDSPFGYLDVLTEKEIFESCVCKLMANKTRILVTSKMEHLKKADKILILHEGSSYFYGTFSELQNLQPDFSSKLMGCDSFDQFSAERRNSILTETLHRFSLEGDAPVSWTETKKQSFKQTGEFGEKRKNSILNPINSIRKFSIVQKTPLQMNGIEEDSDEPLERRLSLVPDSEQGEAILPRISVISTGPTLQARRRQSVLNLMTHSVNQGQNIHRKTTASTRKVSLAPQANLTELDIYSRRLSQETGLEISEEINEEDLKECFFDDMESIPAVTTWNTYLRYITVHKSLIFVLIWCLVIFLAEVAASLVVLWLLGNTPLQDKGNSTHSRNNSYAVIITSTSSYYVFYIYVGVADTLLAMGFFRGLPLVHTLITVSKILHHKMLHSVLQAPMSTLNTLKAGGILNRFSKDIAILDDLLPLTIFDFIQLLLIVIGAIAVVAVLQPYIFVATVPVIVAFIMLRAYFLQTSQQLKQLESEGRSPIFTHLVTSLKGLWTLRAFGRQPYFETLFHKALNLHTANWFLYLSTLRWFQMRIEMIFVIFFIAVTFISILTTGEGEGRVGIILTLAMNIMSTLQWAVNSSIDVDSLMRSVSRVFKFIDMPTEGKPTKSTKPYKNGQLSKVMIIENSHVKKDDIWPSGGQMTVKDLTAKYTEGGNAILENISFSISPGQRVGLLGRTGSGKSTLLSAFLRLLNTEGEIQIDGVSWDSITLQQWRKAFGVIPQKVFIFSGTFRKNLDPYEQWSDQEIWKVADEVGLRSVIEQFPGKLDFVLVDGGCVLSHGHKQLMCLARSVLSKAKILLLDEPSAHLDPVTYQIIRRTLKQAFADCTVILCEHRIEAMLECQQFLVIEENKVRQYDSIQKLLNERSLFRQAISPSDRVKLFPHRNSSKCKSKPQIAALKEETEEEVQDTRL

| Structure (SMILES) | IC50 |
| --- | --- |
| Cn1ccc(-c2c3c(=O)n(C)c(=O)n(C)c3c3n2CCCC3c2nc(Cl)cs2)n1 (racemic) [Example 22, 10-(4-Chlorothiazol-2-yl)-1,3-dimethyl-5-(1-methyl-1H-pyrazol-3-yl)-7,8,9,10-tetrahydropyrimido[4,5-a]indolizine-2,4(1H,3H)-dione] | 0.47 µM |
| Cn1c(=O)c2c(-c3nc(C(=O)O)cs3)n3c(c2n(C)c1=O)C(c1ccc(Cl)o1)SCC3 (racemic) [Example 25, 2-(10-(5-Chlorofuran-2-yl)-1,3-dimethyl-2,4-dioxo-2,3,4,7,8,10-hexahydro-1H-pyrimido[4′,5′:3,4]pyrrolo[2,1-c][1,4]thiazin-5-yl)thiazole-4-carboxylic acid] | 4.84 µM |
| C=C1Cn2c(-c3cccc(F)c3)c3c(=O)n(C)c(=O)n(C)c3c2C1c1nc(Cl)cs1 (racemic) [Example 29, 9-(4-Chlorothiazol-2-yl)-5-(3-fluorophenyl)-1,3-dimethyl-8-methylene-8,9-dihydro-1H-pyrimido[4,5-a]pyrrolizine-2,4(3H,7H)-dione] | 0.44 µM |
| Cc1ccc(C2SCCn3c(-c4ccccc4)c4c(=O)n(C)c(=O)n(C)c4c32)o1 (single isomer, unassigned) [Example 1.2, 1,3-Dimethyl-10-(5-methylfuran-2-yl)-5-phenyl-7,8-dihydro-1H-pyrimido[4′,5′:3,4]pyrrolo[2,1-c][1,4]thiazine-2,4(3H,10H)-dione] | 0.79 µM |
| Cc1ccc(C2SCCn3c(-c4ccccc4)c4c(=O)n(C)c(=O)n(C)c4c32)o1 (single isomer, unassigned) [Example 1.3, 1,3-Dimethyl-10-(5-methylfuran-2-yl)-5-phenyl-7,8-dihydro-1H-pyrimido[4′,5′:3,4]pyrrolo[2,1-c][1,4]thiazine-2,4(3H,10H)-dione] | > 30 µM |
| Cc1ccc(C2SC[C@H](CN(C)C)n3c(-c4ccccc4)c4c(=O)n(C)c(=O)n(C)c4c32)o1 (single isomer, unassigned) [Example 2.1, 7-((dimethylamino)methyl)-1,3-dimethyl-10-(5-methylfuran-2-yl)-5-phenyl-7,8-dihydro-1H-pyrimido[4′,5′:3,4]pyrrolo[2,1-c][1,4]thiazine-2,4(3H,10H)-dione] | 0.41 µM |
| Cc1csc(-c2c3c(=O)n(C)c(=O)n(C)c3c3n2CCSC3c2ccc(Cl)o2)n1 (single isomer, unassigned) [Example 3.1.1, 10-(5-chlorofuran-2-yl)-1,3-dimethyl-5-(4-methylthiazol-2-yl)-7,8-dihydro-1H-pyrimido[4′,5′:3,4]pyrrolo[2,1-c][1,4]thiazine-2,4(3H,10H)-dione] | 0.41 µM |
| Cn1c(=O)c2c(C3=CCCCC3)n3c(c2n(C)c1=O)C(c1ccc(Cl)o1)SCC3 (single isomer, unassigned) [Example 3.1.2, 10-(5-chlorofuran-2-yl)-5-(cyclohex-1-en-1-yl)-1,3-dimethyl-7,8-dihydro-1H-pyrimido[4′,5′:3,4]pyrrolo[2,1-c][1,4]thiazine-2,4(3H,10H)-dione] | 1.51 µM |
| Cn1c(=O)c2c(-c3cccc(C#N)c3)n3c(c2n(C)c1=O)C(c1ccc(Cl)o1)SCC3 (single isomer, unassigned) [Example 3.5, 3-(10-(5-chlorofuran-2-yl)-1,3-dimethyl-2,4-dioxo-2,3,4,7,8,10-hexahydro-1H-pyrimido[4′,5′:3,4]pyrrolo[2,1-c][1,4]thiazin-5-yl)benzonitrile] | 0.16 µM |
| CCn1c(=O)c2c(-c3ccccc3)n3c(c2n(CC)c1=O)C(c1ccc(Cl)o1)SCC3 (single isomer, unassigned) [Example 4.2, 10-(5-Chlorofuran-2-yl)-1,3-diethyl-5-phenyl-7,8-dihydro-1H-pyrimido[4′,5′:3,4]pyrrolo[2,1-c][1,4]thiazine-2,4(3H,10H)-dione] | 1.67 µM |
| Cc1ccc([C@@H]2C[C@H](C)Cn3c(-c4cccc(F)c4)c4c(=O)n(C)c(=O)n(C)c4c32)o1 (single isomer, unassigned) [Example 7.5b, 5-(3-fluorophenyl)-1,3,8-trimethyl-10-(5-methylfuran-2-yl)-7,8,9,10-tetrahydropyrimido[4,5-a]indolizine-2,4(1H,3H)-dione] | 2.18 µM |
| Cc1cccc(-c2c3c(=O)n(C)c(=O)n(C)c3c3n2CCCC3c2nc(C)cs2)c1 (single isomer, unassigned) [Example 8.2, 1,3-dimethyl-10-(4-methylthiazol-2-yl)-5-m-tolyl-7,8,9,10-tetrahydropyrimido[4,5-a]indolizine-2,4(1H,3H)-dione] | 0.29 µM |
| Cc1csc(C2CCCn3c(-c4cccc(C#N)c4)c4c(=O)n(C)c(=O)n(C)c4c32)n1 (single isomer, unassigned) [Example 9.1, 3-(1,3-dimethyl-10-(4-methylthiazol-2-yl)-2,4-dioxo-1,2,3,4,7,8,9,10-octahydropyrimido[4,5-a]indolizin-5-yl)benzonitrile] | 0.29 µM |
| Cn1c(=O)c2c(-c3cccc(F)c3)n3c(c2n(C)c1=O)[C@H](c1ccc(Cl)o1)S[C@@H](CO)C3 (single isomer, unassigned) [Example 12.1b, 10-(5-chlorofuran-2-yl)-5-(3-fluorophenyl)-8-(hydroxymethyl)-1,3-dimethyl-7,8-dihydro-1H-pyrimido[4′,5′:3,4]pyrrolo[2,1-c][1,4]thiazine-2,4(3H,10H)-dione] | 0.18 µM |
| Cn1c(=O)c2c(-c3ccccc3)n3c(c2n(C)c1=O)C(c1ccc(Cl)o1)SC(CO)C3 (single isomer, unassigned) [Example 12.a, 10-(5-chlorofuran-2-yl)-8-(hydroxymethyl)-1,3-dimethyl-5-phenyl-7,8-dihydro-1H-pyrimido[4′,5′:3,4]pyrrolo[2,1-c][1,4]thiazine-2,4(3H,10H)-dione] | 0.2 µM |
| Cn1c(=O)c2c(-c3ccccc3)n3c(c2n(C)c1=O)C(c1ccc(Cl)o1)SC(CO)C3 (single isomer, unassigned) [Example 12.b, 10-(5-chlorofuran-2-yl)-8-(hydroxymethyl)-1,3-dimethyl-5-phenyl-7,8-dihydro-1H-pyrimido[4′,5′:3,4]pyrrolo[2,1-c][1,4]thiazine-2,4(3H,10H)-dione] | 0.54 µM |
| Cn1c(=O)c2c(-c3nc(CO)cs3)n3c(c2n(C)c1=O)C(c1nc(Cl)cs1)CCC3 (single isomer, unassigned) [Example 13.1a, 10-(4-chlorothiazol-2-yl)-5-(4-(hydroxymethyl)thiazol-2-yl)-1,3-dimethyl-7,8,9,10-tetrahydropyrimido[4,5-a]indolizine-2,4(1H,3H)-dione] | 0.1 µM |
| Cc1nc(-c2c3c(=O)n(C)c(=O)n(C)c3c3n2CCC[C@H]3c2nc(Cl)cs2)cs1 (single isomer, unassigned) [Example 13.3a, 10-(4-chlorothiazol-2-yl)-1,3-dimethyl-5-(2-methylthiazol-4-yl)-7,8,9,10-tetrahydropyrimido[4,5-a]indolizine-2,4(1H,3H)-dione] | 0.09 µM |
| CN(C)C[C@@H]1Cn2c(-c3ccccc3)c3c(=O)n(C)c(=O)n(C)c3c2[C@@H](c2ccc(Cl)o2)S1 (single isomer, unassigned) [Example 14a, 10-(5-chlorofuran-2-yl)-8-((dimethylamino)methyl)-1,3-dimethyl-5-phenyl-7,8-dihydro-1H-pyrimido[4′,5′:3,4]pyrrolo[2,1-c][1,4]thiazine-2,4(3H,10H)-dione] | 0.31 µM |
| Cn1c(=O)c2c(-c3nc(CO)cs3)n3c(c2n(C)c1=O)[C@H](c1ccc(Cl)o1)SCC3 (single isomer, unassigned) [Example 15, 10-(5-Chlorofuran-2-yl)-5-(4-(hydroxymethyl)thiazol-2-yl)-1,3-dimethyl-7,8-dihydro-1H-pyrimido[4′,5′:3,4]pyrrolo[2,1-c][1,4]thiazine-2,4(3H,10H)-dione] | 0.1 µM |
| Cn1ccc(-c2c3c(=O)n(C)c(=O)n(C)c3c3n2CCSC3c2ccc(Cl)o2)n1 (single isomer, unassigned) [Example 15.11, 10-(5-Chlorofuran-2-yl)-1,3-dimethyl-5-(1-methyl-1H-pyrazol-3-yl)-7,8-dihydro-1H-pyrimido[4′,5′:3,4]pyrrolo[2,1-c][1,4]thiazine-2,4(3H,10H)-dione] | 0.13 µM |
